Biological target: T1, inhibitory DREADD (Homo sapiens, UniProt P08173, A203G/Y113C)
T1 construct: host or cells: ILA CRH+ neurons of CRH-Cre mice, Cre-dependent AAV2/8 transduction in vivo
T1 sequence (P08173 1-479 Y113C/A203G): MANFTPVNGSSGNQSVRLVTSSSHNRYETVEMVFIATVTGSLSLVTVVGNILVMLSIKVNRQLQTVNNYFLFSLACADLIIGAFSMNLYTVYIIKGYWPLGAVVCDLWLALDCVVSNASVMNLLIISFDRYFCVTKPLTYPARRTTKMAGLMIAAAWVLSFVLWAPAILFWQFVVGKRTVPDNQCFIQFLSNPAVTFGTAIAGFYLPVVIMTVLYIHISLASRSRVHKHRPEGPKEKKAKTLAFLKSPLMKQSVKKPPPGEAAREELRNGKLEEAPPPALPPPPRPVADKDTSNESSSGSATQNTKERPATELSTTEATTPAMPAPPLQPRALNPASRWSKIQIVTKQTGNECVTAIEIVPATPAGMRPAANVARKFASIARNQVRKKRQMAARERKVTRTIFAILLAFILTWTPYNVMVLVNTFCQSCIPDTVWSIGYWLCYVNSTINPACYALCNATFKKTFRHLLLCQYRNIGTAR
Test: c-fos / mCherry overlap in ILA after familiar animal presentation, inhibitory DREADD
Assay type: in vivo, CRH-Cre mice
Settings: CNO i.p. 30 min before familiar animal presentation; vs. saline
Experimental: Mice were anesthetized using isoflurane then perfused in the heart with 10 mL saline and their brains were quickly extracted and incubated in 4% PFA overnight. After 1 h washing in PBS, 60 µm slices were prepared using a Leica VT1000S vibratome (Leica Biosystems). Unless indicated otherwise, slices were permeabilized for 2h in PBS with 0.5% Triton-X100 (T9284, Sigma-Aldrich) in PBS before being incubated overnight at 4°C with primary antibodies diluted in PBS with 0.5% Triton-X in PBS. The slices were washed in PBS for 1 h then incubated overnight at 4°C with secondary antibodies from Thermo-Fisher Scientific at a concentration of 1:500 diluted in PBS with 0.1% Triton-X. Hoechst counterstain was applied (Hoechst 33342 at 1:1000 for 30 min in PBS at RT) prior to mounting the slice using fluoromount (Sigma-Aldrich). Images were acquired using inverted confocal microscopes (Ism 900, Zeiss and SPII, Leica) or an epifluorescent microscope (Thunder, Leica). For post-hoc immunocytochemistry after patch-clamp recordings, slices were fixed for 1 h in PBS with 4% PFA and streptavidin was applied during secondary incubation. • For mRuby and GFP labelling, primary incubation was performed overnight at 4°C with rabbit anti-RFP (1:500, Rockland Antibody, #600-401-379) and chicken anti-GFP (1:1000, Aves, #GFP-1020) antibodies. […]

C[N+]1([O-])CCN(C2=Nc3cc(Cl)ccc3Nc3ccccc32)CC1 [CNO, clozapine N-oxide]
c-fos/mCherry+ cells in ILA: less c-fos/mCherry+ cells compared to the saline control
